For one assay, the system named is BLT1. The arrangement: method as in PMID 18378794. Particulars: in words; cited from earlier work.
Another assay concerns the target T1, wild-type BLT2 receptor (Homo sapiens, UniProt Q9NPC1).
T1 construct: made in house
T1 sequence (Q9NPC1 1-358): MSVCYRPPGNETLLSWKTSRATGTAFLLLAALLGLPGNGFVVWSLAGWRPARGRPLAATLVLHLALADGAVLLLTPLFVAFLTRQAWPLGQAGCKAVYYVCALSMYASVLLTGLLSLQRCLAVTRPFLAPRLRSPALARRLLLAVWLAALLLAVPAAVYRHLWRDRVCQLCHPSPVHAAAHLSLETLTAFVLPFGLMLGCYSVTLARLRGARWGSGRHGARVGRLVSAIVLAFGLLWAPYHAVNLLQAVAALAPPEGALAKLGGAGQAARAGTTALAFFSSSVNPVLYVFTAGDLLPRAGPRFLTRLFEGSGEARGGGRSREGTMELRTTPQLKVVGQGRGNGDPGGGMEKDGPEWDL
Put plainly: Gi protein activation catalyzed by purified BLT2 (rate of GTPγS binding, Gαi2 intrinsic fluorescence). The class given is biochemical. As for the experimental part:
(§1) Gαi2 and Gβ1γ2 were prepared as previously described. Briefly, agonist-dependent functional coupling of the purified receptor to Gαi2β1γ2 was assessed through the rate of GTPγS binding at increasing agonist concentrations determined by monitoring the relative increase in the intrinsic fluorescence ( λexcitation=300nm , λemission=345nm ) of Gαi2 (200 nM of purified G protein) in the presence of BLT2 (20 nM) in buffer containing 10 mM MOPS, pH 7.2, 130 mM NaCl, and 2 mM MgCl2 at 15 °C after the addition of 10 μM GTPγS. The data were normalized to the fluorescence maximum obtained in the presence of saturating concentrations in 12–HHT (10 μM).

The target of a further assay is T2, BLT2 S174^ECL2A (Homo sapiens, UniProt Q9NPC1, S174A).
T2 construct: made in house
T2 sequence (Q9NPC1 1-358 S174A): T1 sequence (Q9NPC1 1-358) with S174A
Description: Gi protein activation catalyzed by BLT2 mutant. The class given is biochemical. As for the experimental part:
(§2) All mutations were introduced in the wild-type BLT2 receptor by PCR-mediated mutagenesis using the QuickChange multisite-directed mutagenesis kit (Stratagene) and the wild-type BLT2 construct as a template. Mutations were confirmed by nucleotide sequencing.
as §1

A further assay concerns the target T3, BLT2 R270^7.35A (Homo sapiens, UniProt Q9NPC1, R270A).
T3 construct: made in house
T3 sequence (Q9NPC1 1-358 R270A): T1 sequence (Q9NPC1 1-358) with R270A
Description: Gi protein activation catalyzed by BLT2 mutant. As to conditions: construct R270^7.35A. The format is biochemical. As for the experimental part:
as §2, §1

For assay [1], the system named is BLT2. The arrangement: method as in PMID 18378794. As to conditions: membrane fractions of CHO transfected by BLT2; cited from earlier work.
Another assay concerns the target purified BLT2 receptor. On the set-up: method as in PMID 21688157. As to conditions: cited from earlier work.
Assay [2] relates to BLT2. On the set-up: method as in PMID 18378794. As to conditions: cited from earlier work.
The target of another assay is T4, BLT2 E185^5.42A (Homo sapiens, UniProt Q9NPC1, E185A).
T4 construct: made in house
T4 sequence (Q9NPC1 1-358 E185A): T1 sequence (Q9NPC1 1-358) with E185A
Put plainly: Gi protein activation catalyzed by BLT2 mutant. The format is biochemical. As for the experimental part: All mutations were introduced in the wild-type BLT2 receptor by PCR-mediated mutagenesis using the QuickChange multisite-directed mutagenesis kit (Stratagene) and the wild-type BLT2 construct as a template. Mutations were confirmed by nucleotide sequencing. […] Gαi2 and Gβ1γ2 were prepared as previously described. […] The data were normalized to the fluorescence maximum obtained in the presence of saturating concentrations in 12–HHT (10 μM).

Where a chain is given by its changes, count along the chain named. Like-named read-outs stand apart in the source and are kept apart here.

As for `CCCCC[C@H](O)/C=C/C=C/C/C=C\CCCC(=O)O` [12–HHT, 12S–hydroxyheptadeca-5Z,8E,10E-trienoic acid], the “binding to BLT1” value in the assay with BLT1 is recorded as “does not bind”. In addition, the EC50 at wild-type BLT2 receptor (construct wt, Gi protein activation) was 21 nM; at wild-type BLT2 receptor (wild-type), 21 nM; at BLT2 S174^ECL2A (S174^ECL2A, read-out: EC50), 295 nM; on BLT2 S174^ECL2A (construct S174^ECL2A, given as LogEC50 (negative sign), read-out: LogEC50 (converted)), 289 nM; on BLT2 S174^ECL2A (construct S174^ECL2A, read-out: EC50), 295 nM; at BLT2 R270^7.35A, 235 nM. Besides, at BLT2 E185^5.42A (construct E185^5.42A), the EC50 came to 70.7 nM. For the same compound, the “half maximal effective concentration (EC50) compared to LTB4” value in the assay on BLT2 [1] was “about one order of magnitude lower than LTB4”. The Kd on purified BLT2 receptor (purified BLT2 associated with amphipols in solution, in vitro) is approximately 60 nM. The “bound time compared with LTB4 (in vitro off-rate constant measurements)” value in the assay with purified BLT2 receptor (ratio 12–HHT / LTB4) was 3.6 times. In addition, the “affinity for BLT2 compared to LTB4” value with BLT2 [2] (in cellulo measurements) is given as “about one order of magnitude”. The “half maximal inhibitory concentration (IC50) compared to LTB4” value in the assay with BLT2 [2] (membrane fractions of CHO transfected by BLT2) is recorded as “about one order of magnitude lower than LTB4”. Besides, the “effect of the mutation on ligand binding” value at BLT2 E185^5.42A (E185A compared to wild-type, in words) is “did not significantly affect”.
